From the NIST ThermoML archive (doi:10.1016/j.fluid.2015.07.026)

Conditions: Liquid, Pendant drop shape

[Ar] [argon] + O
interfacial tension [mN/m]
Conditions | 2000 kPa | 5000 kPa | 10000 kPa | 15000 kPa | 20000 kPa | 25000 kPa | 30000 kPa | 40000 kPa | 50000 kPa
298.01 K | 71.6 | 69.7 | 67.4 | 65.3 | 63.3 | 61.9 | 60.7 | 58.6 | 57
323.16 K | 67.1 | 65.7 | 63.2 | 61.1 | 59.4 | 57.9 | 56.5 | 54.5 | 53.3
373.28 K | 58.5 | 57.2 | 55.5 | 53.9 | 52.7 | 51.6 | 50.8 | 49.3 | 48.2
448.07 K | 43.1 | 42.5 | 41.3 | 40.3 | 39.5 | 38.8 | 38.3 | 37.3 | 36.6
473.53 K | 37.3 | 36.5 | 35.6 | 34.8 | 34.1 | 33.7 | 33.1 | 32.9 | 32.8
